Data: patent publication US20140296153A1, “Oligodendrocyte Differentiation” (priority 2011, published 2014)

Experiments:
[1] = test system: Olig2; experiment: Western blotting analysis of Olig2; format: cell-based, mouse; conditions: 7 days, n=8
Experimental: Western blotting analysis of Olig2 was performed from 6- to 8-days-old neurospheres that were plated onto six-well plates previously coated with poly-D-lysine, and that were allowed to adhere for 48 h in the presence of SFM, and treated in the absence (control) or in the presence of Hp and/or AM251 for 7 days. For the evaluation of Olig2 protein levels in control versus Hp-treated condition, the medium was renewed after 48 h. Seven days after the first treatment, the cells were washed with 0.15M phosphate-buffered saline (PBS) and harvested by scraping in the lysis buffer [0.15 M NaCl, 0.05 M Tris-base, 5 mM EGTA, 1% Triton X-100, 0.5% DOC, 0.1% SDS, 10 mM dithiothreitol (DTT), containing a protease inhibitor cocktail tablet (Roche Diagnostics GmbH, Germany), pH7.4 at 4° C.].
The supernatant was collected after centrifugation at 14 000 rpm for 10 min, at 4° C. Protein concentration was measured by the BCA method and samples were treated with SDS-PAGE sample buffer [6× concentrated: 350 mM Tris, 10% (w/v) SDS, 30% (v/v) glycerol, 0.6 M DTT, 0.06% (w/v) bromophenol blue], boiled 5 min at 95° C., and stored at −20° C. until use for Western blotting analysis. […]

[2] = biological target: CB1R (Homo sapiens, UniProt P21554); conditions: cited from earlier work
Sequence of CB1R (P21554 whole entry): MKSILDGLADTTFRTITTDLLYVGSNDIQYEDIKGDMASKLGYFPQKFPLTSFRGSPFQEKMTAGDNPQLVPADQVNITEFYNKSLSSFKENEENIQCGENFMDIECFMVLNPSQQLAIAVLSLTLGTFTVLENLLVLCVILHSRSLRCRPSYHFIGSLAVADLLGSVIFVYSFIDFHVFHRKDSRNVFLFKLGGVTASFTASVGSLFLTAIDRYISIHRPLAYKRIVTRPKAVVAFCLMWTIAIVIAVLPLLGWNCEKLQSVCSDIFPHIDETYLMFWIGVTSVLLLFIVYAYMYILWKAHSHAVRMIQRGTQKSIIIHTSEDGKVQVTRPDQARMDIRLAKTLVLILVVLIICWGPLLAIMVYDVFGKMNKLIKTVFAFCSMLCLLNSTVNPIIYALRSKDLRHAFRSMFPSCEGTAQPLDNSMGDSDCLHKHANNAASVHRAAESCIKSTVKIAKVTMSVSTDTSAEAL

[3] = test system: SVZ cells; experiment: Single cell calcium imaging (SCCI) of oligodendrocytic differentiation; format: cell-based, mouse; conditions: 7 days
Experimental: To investigate the influence of Hp on oligodendrocytic differentiation, SVZ neurospheres were allowed to develop for 7 days Hp (100 nm, 1 μM), in serum free medium devoid of growth factor at 37° C.
To determine the functional differentiation pattern of SVZ cells, we analyzed the variations of intracellular calcium-free levels ([Ca^2+]i) in single cells following stimulation with 50 mM KCl, 100 μM histamine (Sigma-Aldrich, St. Louis, Mo. USA) and 0.1 U/ml thrombin (Sigma-Aldrich) stimulation. KCl depolarization causes an increase in [Ca^2+]i in neurons, whereas stimulation with histamine leads to an increase in [Ca^2+]i in stem/progenitor cells, while thrombin leads to an increase in [Ca^2+]i in oligodendrocytes. SVZ cultures were loaded for 40 minutes with 5 μM Fura—2/AM (Molecular Probes, Carlsbad, Calif., USA), 0.1% fatty acid-free BSA, and 0.02% pluronic acid F-127 (Molecular Probes) in Krebs solution (132 mM NaCl, 4 mM KCl, 1.4 mM MgCl2, 1 mM CaCl2, 6 mM glucose, 10 mM HEPES, pH 7.4), in an incubator with 5% CO2 and 95% atmospheric air at 37° C. After a 10-minute postloading period at room temperature (RT) in the same medium without Fura-2/AM and pluronic acid, to obtain a complete hydrolysis of the probe, the glass coverslip was mounted on an RC-20 chamber in a PH3 platform (Warner Instruments, Hamden, Conn., USA) on the stage of an inverted fluorescence microscope (Axiovert 200, Carl Zeiss). […] The variations of [Ca^2+]i were evaluated by quantifying the ratio of the fluorescence emitted at 510 nm following alternate excitation (750 msec) at 340 and 380 nm, using a Lambda DG4 apparatus (Sutter Instrument, Novato, Calif., USA) and a 510 nm band-pass filter (Carl Zeiss) before fluorescence acquisition with a x40 objective and a CoolSNAP digital camera (Roper Scientific, Trenton, N.J., USA). […] KCl, histamine, and thrombin peaks given by the normalized ratios of fluorescence at 340/380 nm, at the proper time periods, were used to calculate the ratios of the responses to histamine/KCl (Hist/KCl-neuronal-like profile) and to thrombin/histamine (Throm/Hist-oligodendrocytic-like profile).
Fluorescence images were recorded using an LSM 510 Meta confocal microscope or an Axioskop 2 Plus fluorescence microscope (both from Carl Zeiss). […] Percentages of TUNEL or BrdU immunoreactive cells in SVZ cell cultures were calculated from cell counts in five independent microscopic fields in each coverslip with a x40 objective (approximately 200 cells per field). […] For SCCl experiments, the percentage of oligodendrocytic-like responding cells (with a Thromb/Hist ratio above 1.3) was calculated on the basis of one microscopic field per coverslip, containing approximately 100 cells (magnification, ×40). […]

[4] = test system: SVZ cells; experiment: SVZ self-renewal assay (secondary neurospheres); format: cell-based, mouse; conditions: primary neurospheres exposed to Hp 1 μM for 6 days, replated without Hp
Experimental: Neurosphere forming and self-renewal assays were performed on SVZ cells seeded at clonal density, 2500 cells per well in 24-well cell culture plates in SFM containing 5 ng/ml EGF and 2.5 ng/ml FGF-2 and supplemented or not (control) with 1 μM Hp or 50 ng.ml^−1 hepatocyte growth factor (carrier free recombinant human HGF, R&D Systems, Lille, France). After 6 days, the numbers of primary neurospheres were determined. For self-renewal assay, neurospheres were collected, dissociated as single cells and seeded in SFM containing 5 ng/ml EGF and 2.5 ng/ml FGF-2 in 24 well plates. After 6 days, the number of secondary neurospheres was counted.
For the SVZ neurosphere forming and self-renewal assays the experiments were replicated in five independent culture preparations and each experimental condition was assayed in four different coverslips.

Structure (SMILES): CC(C)C[C@H](NC(=O)[C@H](Cc1ccccc1)NC(=O)[C@H](CCCCN)NC(=O)[C@H](Cc1ccccc1)NC(=O)[C@H](CC(N)=O)NC(=O)[C@@H](NC(=O)[C@@H]1CCCN1)C(C)C)C(=O)N[C@@H](CO)C(=O)N[C@@H](Cc1cnc[nH]1)C(=O)O [Hp, PVNFKFLSH]
- Olig2 protein levels normalized to β-actin, relative to control (100%) ([1]; Hp 100 nM): 136.9±10.94%
- Olig2 protein levels normalized to β-actin, relative to control (100%) ([1]; Hp 1 μM): 158.7±23.62%
- activity at CB1R cannabinoid receptors [2]: CB1R receptor selective antagonist
- cells responding with a Throm/Hist ratio above 1.3 (oligodendrocyte-like responding cells) ([3]; Hp 100 nM, 9 coverslips): 15.84±3.85%
- cells responding with a Throm/Hist ratio above 1.3 (oligodendrocyte-like responding cells) ([3]; Hp 1 μM, 12 coverslips): 14.51±4.09%
- cells responding with a Throm/Hist ratio above 1.3 (oligodendrocyte-like responding cells) ([3]; Hp treatment (100 nM or 1 μM), rounded): around 15%
- number of secondary neurospheres (control 100%) [4]: 125.5±13.38%
